Source: patent publication US20120029187A1, “HALOALKYLSULFONANILIDE DERIVATIVE” (Nissan Chemical Industries, Ltd., priority 2009, published 2012)

Experiments:
Type in all cases: in vivo
barnyardgrass [1] = experiment: Test Example 1: herbicidal effects in preemergence treatment under submerged conditions; settings: dose 2.52 g/a
How it was run: (§1)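 Alluvial soil was flooded to 4 cm, sown with barnyardgrass, bulrush and ducksalad, and planted with 2.5-leaf rice seedlings. On the seeding day, water-diluted emulsifiable concentrates were applied to the water surface at set doses (g/a). After three weeks in a 25 to 30° C. greenhouse, mortality was scored 0–5.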

ducksalad [2] = experiment: as above; settings: dose 2.52 g/a
How it was run: as §1

bulrush [3] = experiment: as above; settings: dose 2.52 g/a
How it was run: as §1

Italian ryegrass [4] = experiment: Test Example 3: herbicidal effects in soil treatment; settings: dose 3.2 g/a
How it was run: (§2)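 Seeds were sown in sterilized diluvial soil and covered with about 1.5 cm of soil. Compounds, formulated as emulsifiable concentrates and diluted with water, were sprayed evenly over the soil surface at set doses in g/a. Herbicidal effect was scored on a rating scale three weeks later.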

water foxtail [5] = experiment: as above; settings: dose 3.2 g/a
How it was run: as §2

beadstraw [6] = experiment: as above; settings: dose 3.2 g/a
How it was run: as §2

posumbu knotweed [7] = experiment: as above; settings: dose 3.2 g/a
How it was run: as §2

redroot pigweed [8] = experiment: as above; settings: dose 3.2 g/a
How it was run: as §2

common ragweed [9] = experiment: as above; settings: dose 3.2 g/a
How it was run: as §2

barnyardgrass [10] = experiment: as above; settings: dose 3.2 g/a
How it was run: as §2

common lambsquater [11] = experiment: as above; settings: dose 3.2 g/a
How it was run: as §2

large crabgrass [12] = experiment: as above; settings: dose 3.2 g/a
How it was run: as §2

common chickweed [13] = experiment: as above; settings: dose 3.2 g/a
How it was run: as §2

giant foxtail [14] = experiment: as above; settings: dose 3.2 g/a
How it was run: as §2

velvetleaf [15] = experiment: as above; settings: dose 3.2 g/a
How it was run: as §2

barnyardgrass [16] = experiment: Test Example 2: herbicidal effects during the vegetation period under submerged conditions; settings: treatment during the vegetation period under submerged conditions; dose 2.52 g/a
How it was run: (§3)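 Barnyardgrass, bulrush and ducksalad were co-sown in alluvial soil flooded to 4 cm and grown in a greenhouse at 25 to 30° C. At the 1- or 2-leaf stage, water-diluted emulsifiable concentrates went onto the water surface at set doses (g/a). Herbicidal effect was scored three weeks later on a graded scale.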

ducksalad [17] = experiment: as above; settings: treatment during the vegetation period under submerged conditions; dose 2.52 g/a
How it was run: as §3

bulrush [18] = experiment: as above; settings: treatment during the vegetation period under submerged conditions; dose 2.52 g/a
How it was run: as §3

Italian ryegrass [19] = experiment: Test Example 4: herbicidal effect in foliage treatment; settings: dose 3.2 g/a, three weeks after application
How it was run: (§4)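 14-day greenhouse-grown plants (25–30° C) sprayed on foliage with diluted EC; dose as g/a; effect graded after 3 weeks.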

water foxtail [20] = experiment: as above; settings: dose 3.2 g/a, three weeks after application
How it was run: as §4

beadstraw [21] = experiment: as above; settings: dose 3.2 g/a, three weeks after application
How it was run: as §4

posumbu knotweed [22] = experiment: as above; settings: dose 3.2 g/a, three weeks after application
How it was run: as §4

redroot pigweed [23] = experiment: as above; settings: dose 3.2 g/a, three weeks after application
How it was run: as §4

common ragweed [24] = experiment: as above; settings: dose 3.2 g/a, three weeks after application
How it was run: as §4

barnyardgrass [25] = experiment: as above; settings: dose 3.2 g/a, three weeks after application
How it was run: as §4

common lambsquater [26] = experiment: as above; settings: dose 3.2 g/a, three weeks after application
How it was run: as §4

large crabgrass [27] = experiment: as above; settings: dose 3.2 g/a, three weeks after application
How it was run: as §4

common chickweed [28] = experiment: as above; settings: dose 3.2 g/a, three weeks after application
How it was run: as §4

giant foxtail [29] = experiment: as above; settings: dose 3.2 g/a, three weeks after application
How it was run: as §4

velvetleaf [30] = experiment: as above; settings: dose 3.2 g/a, three weeks after application
How it was run: as §4

transplanted rice = experiment: Test Example 1: preemergence treatment under submerged conditions, effect on crop; settings: dose 2.52 g/a
How it was run: as §1

| SMILES | A: barnyardgrass, herbicidal effect (evaluation scale 0-5) (barnyardgrass [1]) | C: ducksalad, herbicidal effect (evaluation scale 0-5) (ducksalad [2]) | B: bulrush, herbicidal effect (evaluation scale 0-5) (bulrush [3]) | H: Italian ryegrass, herbicidal effect (evaluation scale 0-5) (Italian ryegrass [4]) | G: water foxtail, herbicidal effect (evaluation scale 0-5) (water foxtail [5]) | O: beadstraw, herbicidal effect (evaluation scale 0-5) (beadstraw [6]) | M: posumbu knotweed, herbicidal effect (evaluation scale 0-5) (posumbu knotweed [7]) | K: redroot pigweed, herbicidal effect (evaluation scale 0-5) (redroot pigweed [8]) | J: common ragweed, herbicidal effect (evaluation scale 0-5) (common ragweed [9]) | A: barnyardgrass, herbicidal effect (evaluation scale 0-5) (barnyardgrass [10]) | L: common lambsquater, herbicidal effect (evaluation scale 0-5) (common lambsquater [11]) | D: large crabgrass, herbicidal effect (evaluation scale 0-5) (large crabgrass [12]) | N: common chickweed, herbicidal effect (evaluation scale 0-5) (common chickweed [13]) | E: giant foxtail, herbicidal effect (evaluation scale 0-5) (giant foxtail [14]) | I: velvetleaf, herbicidal effect (evaluation scale 0-5) (velvetleaf [15]) | A: barnyardgrass, herbicidal effect (evaluation scale 0-5) (barnyardgrass [16]) | C: ducksalad, herbicidal effect (evaluation scale 0-5) (ducksalad [17]) | B: bulrush, herbicidal effect (evaluation scale 0-5) (bulrush [18]) | H: Italian ryegrass, herbicidal effect (Italian ryegrass [19]) | G: water foxtail, herbicidal effect (water foxtail [20]) | also measured |
| --- | --- | --- | --- | --- | --- | --- | --- | --- | --- | --- | --- | --- | --- | --- | --- | --- | --- | --- | --- | --- | --- |
| Cn1nc(Cl)cc1C1(C)CC(=O)N(Cc2ccccc2NS(=O)(=O)C(F)(F)F)CO1 (centres unmarked) [II-59] | 5 (mortality of 90% or above (nearly complete death)) | 5 (mortality of 90% or above (nearly complete death)) | 5 (mortality of 90% or above (nearly complete death)) | 5 (mortality of 90% or above (nearly complete death)) | 0 (mortality of less than 5% (almost ineffective)) | 1 (mortality of at least 5% and less than 20%) | 1 (mortality of at least 5% and less than 20%) | 3 (mortality of at least 40% and less than 70%) | 3 (mortality of at least 40% and less than 70%) | 4 (mortality of at least 70% and less than 90%) | 0 (mortality of less than 5% (almost ineffective)) | 1 (mortality of at least 5% and less than 20%) | 4 (mortality of at least 70% and less than 90%) | 4 (mortality of at least 70% and less than 90%) | 1 (mortality of at least 5% and less than 20%) | 5 (mortality of 90% or above (nearly complete death)) | 5 (mortality of 90% or above (nearly complete death)) | 5 (mortality of 90% or above (nearly complete death)) | 1 (mortality of at least 5% and less than 20%) | 5 (mortality of 90% or above (nearly complete death)) | O: beadstraw, herbicidal effect (beadstraw [21]): 5 (mortality of 90% or above (nearly complete death)); M: posumbu knotweed, herbicidal effect (posumbu knotweed [22]): 1 (mortality of at least 5% and less than 20%); K: redroot pigweed, herbicidal effect (redroot pigweed [23]): 0 (mortality of less than 5% (almost ineffective)); J: common ragweed, herbicidal effect (common ragweed [24]): 4 (mortality of at least 70% and less than 90%); A: barnyardgrass, herbicidal effect (barnyardgrass [25]): 5 (mortality of 90% or above (nearly complete death)); L: common lambsquater, herbicidal effect (common lambsquater [26]): 1 (mortality of at least 5% and less than 20%); D: large crabgrass, herbicidal effect (large crabgrass [27]): 3 (mortality of at least 40% and less than 70%); N: common chickweed, herbicidal effect (common chickweed [28]): 4 (mortality of at least 70% and less than 90%); E: giant foxtail, herbicidal effect (giant foxtail [29]): 1 (mortality of at least 5% and less than 20%); I: velvetleaf, herbicidal effect (velvetleaf [30]): 2 (mortality of at least 20% and less than 40%); a: transplanted rice, effect on crop (evaluation scale 0-5) (transplanted rice): 0 (mortality of less than 5% (almost ineffective)) |
| CCOC(=O)N(c1ccccc1CN1COC(C)(c2cc(Cl)nn2C)CC1=O)S(=O)(=O)C(F)(F)F (centres unmarked) [II-60] | 5 (mortality of 90% or above (nearly complete death)) | 5 (mortality of 90% or above (nearly complete death)) | 5 (mortality of 90% or above (nearly complete death)) | 3 (mortality of at least 40% and less than 70%) | 5 (mortality of 90% or above (nearly complete death)) | 0 (mortality of less than 5% (almost ineffective)) | 3 (mortality of at least 40% and less than 70%) | 4 (mortality of at least 70% and less than 90%) | 1 (mortality of at least 5% and less than 20%) | 5 (mortality of 90% or above (nearly complete death)) | 1 (mortality of at least 5% and less than 20%) | 4 (mortality of at least 70% and less than 90%) | 4 (mortality of at least 70% and less than 90%) | 5 (mortality of 90% or above (nearly complete death)) | 4 (mortality of at least 70% and less than 90%) | 5 (mortality of 90% or above (nearly complete death)) | 5 (mortality of 90% or above (nearly complete death)) | 5 (mortality of 90% or above (nearly complete death)) | 3 (mortality of at least 40% and less than 70%) | 5 (mortality of 90% or above (nearly complete death)) | O: beadstraw, herbicidal effect (beadstraw [21]): 4 (mortality of at least 70% and less than 90%); M: posumbu knotweed, herbicidal effect (posumbu knotweed [22]): 2 (mortality of at least 20% and less than 40%); K: redroot pigweed, herbicidal effect (redroot pigweed [23]): 0 (mortality of less than 5% (almost ineffective)); J: common ragweed, herbicidal effect (common ragweed [24]): 3 (mortality of at least 40% and less than 70%); A: barnyardgrass, herbicidal effect (barnyardgrass [25]): 4 (mortality of at least 70% and less than 90%); L: common lambsquater, herbicidal effect (common lambsquater [26]): 2 (mortality of at least 20% and less than 40%); D: large crabgrass, herbicidal effect (large crabgrass [27]): 3 (mortality of at least 40% and less than 70%); N: common chickweed, herbicidal effect (common chickweed [28]): 4 (mortality of at least 70% and less than 90%); E: giant foxtail, herbicidal effect (giant foxtail [29]): 3 (mortality of at least 40% and less than 70%); I: velvetleaf, herbicidal effect (velvetleaf [30]): 3 (mortality of at least 40% and less than 70%); a: transplanted rice, effect on crop (evaluation scale 0-5) (transplanted rice): 0 (mortality of less than 5% (almost ineffective)) |
